Source: patent US20260258064A1 (SIRONAX LTD., priority 2023, published 2026)

Target: T1, SARM1 (50-724) (Homo sapiens, UniProt Q6SZW1)
T1 construct: Purified SARM1 (50-724) with a final concentration of 2 nM was pre-incubated with a test compound
T1 sequence (Q6SZW1 50-724): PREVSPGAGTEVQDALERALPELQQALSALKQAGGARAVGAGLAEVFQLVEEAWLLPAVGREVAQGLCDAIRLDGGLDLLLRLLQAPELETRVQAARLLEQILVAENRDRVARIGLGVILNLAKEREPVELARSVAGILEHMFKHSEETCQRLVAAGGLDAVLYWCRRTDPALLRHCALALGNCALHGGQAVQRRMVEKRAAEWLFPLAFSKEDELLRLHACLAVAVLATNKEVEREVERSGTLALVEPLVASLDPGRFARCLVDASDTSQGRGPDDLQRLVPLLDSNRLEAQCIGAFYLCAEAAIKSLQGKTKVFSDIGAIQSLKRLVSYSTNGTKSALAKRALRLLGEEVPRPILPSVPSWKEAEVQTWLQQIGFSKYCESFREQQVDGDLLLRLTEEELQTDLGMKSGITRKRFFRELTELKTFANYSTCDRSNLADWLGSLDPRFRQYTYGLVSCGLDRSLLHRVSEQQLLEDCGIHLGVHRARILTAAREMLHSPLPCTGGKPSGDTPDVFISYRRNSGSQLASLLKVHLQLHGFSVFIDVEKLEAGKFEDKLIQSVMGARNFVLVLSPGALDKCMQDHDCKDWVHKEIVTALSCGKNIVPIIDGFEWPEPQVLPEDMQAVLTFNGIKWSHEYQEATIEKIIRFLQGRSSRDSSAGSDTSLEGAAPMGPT
Experiment: SARM1 (50-724) enzymatic assay (LC-MS/MS)
Type: biochemical
Conditions: Purified SARM1 (50-724) 2 nM, NMN as activator, NAD+ as substrate, 1 h at room temperature, read-out: IC50 (SARM1 inhibitory activity)
Outline: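 Reaction buffer was Dulbecco's PBS. Compound and 2 nM human SARM1 (50-724) were pre-incubated 15 min at room temperature, then […] NAD^+ and 200 µM NMN activator were added for 1 h at room temperature. Acetonitrile (70%) stop, LC-MS/MS read-out, IC50 values.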

Row | SMILES | IC50
1 | FC(F)(F)Oc1cnc(CC2COC2)cc1-n1cnnc1-c1nc2cc(C(F)(F)F)ccc2[nH]1 [Compound 262, 2-(4-(2-(oxetan-3-ylmethyl)-5-(trifluoromethoxy)pyridin-4-yl)-4H-1,2,4-triazol-3-yl)-5-(trifluoromethyl)-1H-benzo[d]imidazole] | ≤ 100 nM
2 | OCCOc1cc(-n2cnnc2-c2nc3cc(C(F)(F)F)ccc3[nH]2)c(OC(F)(F)F)cc1F [Compound 263, 2-(2-fluoro-4-(trifluoromethoxy)-5-(3-(5-(trifluoromethyl)-1H-benzo[d]imidazol-2-yl)-4H-1,2,4-triazol-4-yl)phenoxy)ethan-1-ol] | ≤ 100 nM
3 | FC(F)(F)Oc1cnc(-n2cccn2)cc1-n1cnnc1-c1nc2cc(C(F)(F)F)ccc2[nH]1 [Compound 264, 2-(4-(2-(1H-pyrazol-1-yl)-5-(trifluoromethoxy)pyridin-4-yl)-4H-1,2,4-triazol-3-yl)-5-(trifluoromethyl)-1H-benzo[d]imidazole] | ≤ 100 nM
4 | OCCc1cc(-n2cnnc2-c2nc3cc(C(F)(F)F)ccc3[nH]2)c(OC(F)(F)F)cn1 [Compound 265] | ≤ 100 nM
5 | O=C(O)c1cc(-n2cnnc2-c2nc3cc(C(F)(F)F)ccc3[nH]2)c(OC(F)(F)F)cn1 [Compound 266, 5-(trifluoromethoxy)-4-(3-(5-(trifluoromethyl)-1H-benzo[d]imidazol-2-yl)-4H-1,2,4-triazol-4-yl)picolinic acid] | ≤ 100 nM
6 | CS(=O)(=O)CCOc1ccc(OC(F)(F)F)c(-n2cnnc2-c2nc3cc(C(F)(F)F)ccc3[nH]2)n1 [Compound 267] | ≤ 100 nM
7 | Cc1nocc1-n1cnnc1-c1nc2cc(C(F)(F)F)ccc2[nH]1 [Compound 269, 3-methyl-4-(3-(5-(trifluoromethyl)-1H-benzo[d]imidazol-2-yl)-4H-1,2,4-triazol-4-yl)isoxazole] | > 1000 nM
8 | Fc1cc(C2CC2)cc2nc(-c3nncn3-c3cnccc3C(F)(F)F)[nH]c12 [Compound 270, 5-cyclopropyl-7-fluoro-2-(4-(4-(trifluoromethyl)pyridin-3-yl)-4H-1,2,4-triazol-3-yl)-1H-benzo[d]imidazole] | ≤ 100 nM
9 | FC(F)(F)Oc1ccc(OC2COC2)cc1-n1cnnc1-c1nc2cc(C(F)(F)F)ccc2[nH]1 [Compound 271, 2-(4-(5-(oxetan-3-yloxy)-2-(trifluoromethoxy)phenyl)-4H-1,2,4-triazol-3-yl)-5-(trifluoromethyl)-1H-benzo[d]imidazole] | ≤ 100 nM
10 | Cc1ncsc1-n1cnnc1-c1nc2cc(C(F)(F)F)ccc2[nH]1 [Compound 272, 4-methyl-5-(3-(5-(trifluoromethyl)-1H-benzo[d]imidazol-2-yl)-4H-1,2,4-triazol-4-yl)thiazole] | > 1000 nM
11 | FC(F)(F)c1ccc2[nH]c(-c3oncc3-c3cccc(Cl)c3Cl)nc2c1 [Compound 273, 4-(2,3-dichlorophenyl)-5-(5-(trifluoromethyl)-1H-benzo[d]imidazol-2-yl)isoxazole] | 100 to 500 nM
12 | FC(F)(F)c1ccc2[nH]c(-c3n[nH]nc3-c3cccc(Cl)c3Cl)nc2c1 [Compound 274, 2-(5-(2,3-dichlorophenyl)-2H-1,2,3-triazol-4-yl)-5-(trifluoromethyl)-1H-benzo[d]imidazole] | 500 to 1000 nM
13 | FC(F)(F)Oc1ccc(OC2CC2)cc1-n1cnnc1-c1nc2cc(C(F)(F)F)ccc2[nH]1 [Compound 275, 2-(4-(5-cyclopropoxy-2-(trifluoromethoxy)phenyl)-4H-1,2,4-triazol-3-yl)-5-(trifluoromethyl)-1H-benzo[d]imidazole] | ≤ 100 nM
14 | C=Cc1ccc2[nH]c(-c3nncn3-c3cnccc3C(F)(F)F)nc2c1 [Compound 276, 2-(4-(4-(trifluoromethyl)pyridin-3-yl)-4H-1,2,4-triazol-3-yl)-5-vinyl-1H-benzo[d]imidazole] | ≤ 100 nM
15 | CCc1ccc2[nH]c(-c3nncn3-c3cnccc3C(F)(F)F)nc2c1 [Compound 277, 5-ethyl-2-(4-(4-(trifluoromethyl)pyridin-3-yl)-4H-1,2,4-triazol-3-yl)-1H-benzo [d]imidazole] | ≤ 100 nM
16 | CC(c1cc(F)c2[nH]c(-c3nncn3-c3cnccc3C(F)(F)F)nc2c1)C(F)(F)F (stereo not drawn) [Compound 278, 7-fluoro-2-(4-(4-(trifluoromethyl)pyridin-3-yl)-4H-1,2,4-triazol-3-yl)-5-(1,1,1-trifluoropropan-2-yl)-1H-benzo[d]imidazole] | ≤ 100 nM
17 | Cn1ccc(C(F)(F)F)c(-n2cnnc2-c2nc3cc(C(F)(F)F)ccc3[nH]2)c1=O [Compound 279, 1-methyl-4-(trifluoromethyl)-3-(3-(5-(trifluoromethyl)-1H-benzo[d]imidazol-2-yl)-4H-1,2,4-triazol-4-yl)pyridin-2(1H)-one] | > 1000 nM
18 | O=c1ccc(C(F)(F)F)c(-n2cnnc2-c2nc3cc(C(F)(F)F)ccc3[nH]2)[nH]1 [Compound 280, 5-(trifluoromethyl)-6-(3-(5-(trifluoromethyl)-1H-benzo[d]imidazol-2-yl)-4H-1,2,4-triazol-4-yl)pyridin-2(1H)-one] | ≤ 100 nM
19 | FC(F)(F)Oc1ccc(Oc2ncco2)cc1-n1cnnc1-c1nc2cc(C(F)(F)F)ccc2[nH]1 [Compound 281, 2-(4-(trifluoromethoxy)-3-(3-(5-(trifluoromethyl)-1H-benzo[d]imidazol-2-yl)-4H-1,2,4-triazol-4-yl)phenoxy)oxazole] | ≤ 100 nM
20 | Fc1cc(CC(F)(F)F)cc2nc(-c3nncn3-c3cnccc3C(F)(F)F)[nH]c12 [Compound 282, 7-fluoro-5-(2,2,2-trifluoroethyl)-2-(4-(4-(trifluoromethyl)pyridin-3-yl)-4H-1,2,4-triazol-3-yl)-1H-benzo[d]imidazole] | ≤ 100 nM
21 | CS(=O)(=O)Cc1nnc(-c2nc3cc(C4CC4)cc(F)c3[nH]2)n1-c1cnccc1C(F)(F)F [Compound 283, 5-cyclopropyl-7-fluoro-2-(5-((methylsulfonyl)methyl)-4-(4-(trifluoromethyl)pyridin-3-yl)-4H-1,2,4-triazol-3-yl)-1H-benzo[d]imidazole] | ≤ 100 nM
22 | Cn1c(-n2cnnc2-c2nc3cc(C(F)(F)F)ccc3[nH]2)c(C(F)(F)F)ccc1=O [Compound 284, 1-methyl-5-(trifluoromethyl)-6-(3-(5-(trifluoromethyl)-1H-benzo[d]imidazol-2-yl)-4H-1,2,4-triazol-4-yl)pyridin-2(1H)-one] | ≤ 100 nM
23 | Fc1cc(C2(F)CC2)cc2nc(-c3nncn3-c3cnccc3C(F)(F)F)[nH]c12 [Compound 285, 7-fluoro-5-(1-fluorocyclopropyl)-2-(4-(4-(trifluoromethyl)pyridin-3-yl)-4H-1,2,4-triazol-3-yl)-1H-benzo[d]imidazole] | ≤ 100 nM
24 | C=C(CF)c1cc(F)c2[nH]c(-c3nncn3-c3cnccc3C(F)(F)F)nc2c1 [Compound 286, 7-fluoro-5-(3-fluoroprop-1-en-2-yl)-2-(4-(4-(trifluoromethyl)pyridin-3-yl)-4H-1,2,4-triazol-3-yl)-1H-benzo[d]imidazole] | ≤ 100 nM
25 | FC(F)(F)c1cnc2[nH]c(-c3nncn3-c3cnccc3C(F)(F)F)cc2c1 [Compound 287, 5-(trifluoromethyl)-2-(4-(4-(trifluoromethyl)pyridin-3-yl)-4H-1,2,4-triazol-3-yl)-1H-pyrrolo[2,3-b]pyridine] | ≤ 100 nM
26 | CS(=O)(=O)Cc1cccc(OC(F)(F)F)c1-n1cnnc1-c1nc2cc(C(F)(F)F)ccc2[nH]1 [Compound 289, 2-(4-(2-((methylsulfonyl)methyl)-6-(trifluoromethoxy)phenyl)-4H-1,2,4-triazol-3-yl)-5-(trifluoromethyl)-1H-benzo[d]imidazole] | ≤ 100 nM
27 | CC1(c2cc(F)c3[nH]c(-c4nncn4-c4cnccc4C(F)(F)F)nc3c2)COC1 [Compound 290, 7-fluoro-5-(3-methyloxetan-3-yl)-2-(4-(4-(trifluoromethyl)pyridin-3-yl)-4H-1,2,4-triazol-3-yl)-1H-benzo[d]imidazole] | ≤ 100 nM
28 | FC(F)(F)c1ccc2[nH]c(-c3nncn3-c3cnccc3C(F)(F)F)cc2n1 [Compound 292, 5-(trifluoromethyl)-2-(4-(4-(trifluoromethyl)pyridin-3-yl)-4H-1,2,4-triazol-3-yl)-1H-pyrrolo[3,2-b]pyridine] | ≤ 100 nM
29 | Fc1cc(OC(F)F)cc2nc(-c3nncn3-c3cnccc3C(F)(F)F)[nH]c12 [Compound 293, 5-(difluoromethoxy)-7-fluoro-2-(4-(4-(trifluoromethyl)pyridin-3-yl)-4H-1,2,4-triazol-3-yl)-1H-benzo[d]imidazole] | ≤ 100 nM
30 | FC(F)(F)Oc1cnc(C2CCO2)cc1-n1cnnc1-c1nc2cc(C(F)(F)F)ccc2[nH]1 (stereo not drawn) [Compound 294, 2-(4-(2-(oxetan-2-yl)-5-(trifluoromethoxy)pyridin-4-yl)-4H-1,2,4-triazol-3-yl)-5-(trifluoromethyl)-1H-benzo[d]imidazole] | ≤ 100 nM
